Measured values taken from patent US8546357B2, “Boron-containing small molecules for controlling ectoparasites” (priority 2011, dated 2013).

Tests used:
[1] = test system: Lone star tick larvae (Amblyomma americanum); assay: Larval immersion microassay against larval-stage Lone star ticks; conditions: Amblyomma americanum, 24 h, read-out: activity (percent larval mortality)
Protocol: The larval immersion microassay was conducted as described in detail in White, et al., J. Med. Entomol. 41: 1034-1042 (2004). Compounds of the invention were formulated in dimethylsulfoxide (DMSO) to prepare a stock solution at a concentration of at least 10 mM. Using 96-well microtiter plates, an aliquot of the mM sample was subsequently diluted in a water-based solution containing 1% ethanol and 0.2% Triton X-100, to obtain the desired concentration (typically 0.3 mM or lower) of compound in a volume of 0.1 ml (minimum n=3 replicates per compound or concentration). Approximately 30-50 Lone star tick larvae (Amblyomma americanum) were submerged into each well containing compounds. After a 30 minute immersion period, larvae were removed with a wide-bore pipette tip in 0.05 ml of fluid, dispensed into a commercial paper tissue biopsy bag which was sealed at the top with a plastic dialysis clip, inverted and allowed to air dry for 60 minutes. Bags containing larvae were then incubated at approximately 27 degrees Celsius and >90% relative humidity. After 24 hours, bags were opened, live and dead larvae were counted and percent larval mortality was calculated.
7 and 8 contain one chiral center each, and are racemic mixtures comprised of approximately 50% R- and 50% S-enantiomer. In vitro and surrogate animal (rat) studies were conducted to evaluate the biological activity of the R- and S-enantiomers of 7 and 8. For the in vitro study, larvae of the Lone star tick (Amblyomma americanum) were exposed to 9, 10, 11 and 12 using the larval immersion microassay at a concentration of no greater than 0.3 mM. Following exposure, larvae were removed, transferred to a tissue biopsy bag and incubated at approximately 27 degrees Celsius and >90% relative humidity. After 24 hours, biopsy bags were opened and the numbers of live and dead larvae were determined

[2] = test system: adult American dog tick (Dermacentor variabilis); assay: Therapeutic (knockdown) and residual efficacy against adult American dog tick infestations on dogs, oral; type: in vivo; conditions: for Geometric mean group live parasite counts / % efficacy: Table 7, oral capsule 25 mg/kg; for therapeutic efficacy / Residual efficacy: oral gavage 25 mg/kg
Protocol: (§1) The therapeutic (knockdown) and residual efficacy of 5, administered orally at a point dose of 25 mg/kg bodyweight, was evaluated against adult American dog tick (D. variabilis) infestations on dogs. Six beagle dogs were allocated to one of two treatment groups, an untreated control group (n=4 dogs) or 5 group (n=2 dogs). On Day 0, two dogs were treated with 5 via oral gavage (25 mg/ml 5, dissolved in a solution of 55% polyethylene glycol-300, 35% propylene glycol and 10% water) at a point dose of approximately 25 mg/kg. Twenty-four (24) hours before treatment (Day −1), all dogs were infested with approximately 50 unfed, adult-stage American dog ticks (D. variabilis; approximately 50% male and 50% female). On Day 1, approximately 24 hours after treatment, thumb counts were conducted to determine the number and life-status classification of ticks present on all dogs (normal, moribund or dead; attached or detached). Ticks were not removed during thumb counts. On Day 2, approximately 48 hours after treatment, all ticks were classified and removed from dogs. Dogs were re-infested with approximately 50 unfed, adult D. variabilis ticks on Days 5 and 12, with tick classification, counts and removal on Days 7 and 14 (approximately 48 hours after each infestation).
(§2) The therapeutic (knockdown) and residual efficacy of 7 and 8, each administered orally at a point dose of 25 mg/kg bodyweight, was evaluated against adult tick (Dermacentor variabilis and Rhipicephalus sanguineus) and adult cat flea (Ctenocephalides felis) infestations on dogs. Twelve (12) male and female beagle dogs were randomly allocated to one of three treatment groups, four (4) dogs per group: Untreated control; 7, 25 mg/kg; and 8, 25 mg/kg. On Day −1, all dogs were infested with approximately 50 unfed, adult D. variabilis ticks. On Day 0, dogs were orally administered gelatin capsules containing either 7 or 8 (50% technical active, 47% microcrystalline cellulose and 3% croscarmellose sodium, w/w). Ticks were counted and classified, but not removed, on all dogs on Day 1, approximately 24 hours after treatment. On Day 2, approximately 48 hours after treatment, ticks were counted, classified and removed. Dogs were re-infested with the same number of D. variabilis ticks on Days 5, 12, 19 and 28 and tick counts were conducted on Days 7, 14, 21 and 30.
(§3) The therapeutic (knockdown) and residual efficacy of 7, administered orally at a point dose of 35 mg/kg bodyweight, was evaluated against adult tick (Dermacentor variabilis and Rhipicephalus sanguineus) and adult cat flea (Ctenocephalides felis) infestations on dogs. Twelve (12) male and female beagle dogs were allocated to either an untreated, negative control group or 7 group (n=6 dogs per group). Dogs were infested with approximately 50 unfed, adult D. variabilis ticks on Days −1, 5, 12, 19, 28, 35 and 42. On Day 0, dogs were orally administered gelatin capsules containing Compound 8194 (50% technical active, 47% microcrystalline cellulose and 3% croscarmellose sodium, w/w) at a point dose of 35 mg/kg. D. variabilis tick counts and classification were conducted on Day 1 (thumb count, approximately 24 hours after treatment) and Days 2, 7, 14, 21, 30, 37 and 44 (approximately 48 hours after treatment). Following removal of D. variabilis ticks on Day 30, all dogs were co-infested with approximately 50 unfed, adult brown dog ticks (R. sanguineus) and approximately 100 unfed, adult cat fleas (C. felis). Brown dog tick and cat flea counts were conducted on Day 32 (approximately 48 hours after infestation). GM percent efficacy of treatments against both tick species and fleas was calculated using the following formula: […]
The therapeutic (knockdown) and residual efficacy of S-enantiomer, 9, administered orally at a point dose of 25 mg/kg bodyweight, was evaluated against adult tick (Dermacentor variabilis and Rhipicephalus sanguineus) and adult cat flea (Ctenocephalides felis) infestations on dogs. […]

[3] = Tolerability of oral treatment in dogs; type: in vivo, dog; conditions: oral gavage 25 mg/kg
Protocol: as §1, §2
The therapeutic (knockdown) and residual efficacy of 7, administered orally at a point dose of 35 mg/kg bodyweight, was evaluated against adult tick (Dermacentor variabilis and Rhipicephalus sanguineus) and adult cat flea (Ctenocephalides felis) infestations on dogs. Twelve (12) male and female beagle dogs were allocated to either an untreated, negative control group or 7 group (n=6 dogs per group). Dogs were infested with approximately 50 unfed, adult D. variabilis ticks on Days −1, 5, 12, 19, 28, 35 and 42. On Day 0, dogs were orally administered gelatin capsules containing Compound 8194 (50% technical active, 47% microcrystalline cellulose and 3% croscarmellose sodium, w/w) at a point dose of 35 mg/kg. […] GM percent efficacy of treatments against both tick species and fleas was calculated using the following formula: […]
The therapeutic efficacy and speed of kill of 7, administered orally at a point dose of 20 mg/kg bodyweight, was evaluated against adult cat flea (Ctenocephalides felis) infestations on dogs. […]

[4] = test system: brown dog tick (Rhipicephalus sanguineus); assay: Residual efficacy against adult brown dog tick infestations on dogs, oral; type: in vivo; conditions: Table 7, oral capsule 25 mg/kg, Day 32
Protocol: (§4) Immediately following removal of D. variabilis ticks on Day 30, dogs were co-infested with approximately 50 adult, unfed brown dog ticks (R. sanguineus, approximately 50% male and 50% female) and approximately 100 adult, unfed cat fleas (C. felis, approximately 50% male and 50% female). Ticks and fleas were counted and removed on Day 32 (approximately 48 hours after infestation). GM percent efficacy of treatments against both tick species and fleas was calculated using the following formula: […]
as §3
(§5) The therapeutic (knockdown) and residual efficacy of S-enantiomer, 9, administered orally at a point dose of 25 mg/kg bodyweight, was evaluated against adult tick (Dermacentor variabilis and Rhipicephalus sanguineus) and adult cat flea (Ctenocephalides felis) infestations on dogs. Twelve (12) male and female beagle dogs were allocated to either an untreated, negative control group or 9 group (n=6 dogs per group). Dogs were infested with approximately 50 unfed, adult D. variabilis ticks on Days −1, 5, 12, 19, and 28. On Day 0, dogs were orally administered gelatin capsules containing 9 (50% technical active, 47% microcrystalline cellulose and 3% croscarmellose sodium, w/w) at a point dose of 25 mg/kg. D. variabilis tick counts and classification were conducted on Day 1 (thumb count, approximately 24 hours after treatment) and Days 2, 7, 14, 21 and 30 (approximately 48 hours after treatment). Following removal of D. variabilis ticks on Day 30, all dogs were co-infested with approximately 50 unfed, adult brown dog ticks (R. sanguineus) and approximately 100 unfed, adult cat fleas (C. felis). Brown dog tick and cat flea counts were conducted on Day 32 (approximately 48 hours after infestation). GM percent efficacy of treatments against both tick species and fleas was calculated using the following formula: […]

[5] = test system: cat flea (Ctenocephalides felis); assay: Residual efficacy against adult cat flea infestations on dogs, oral; type: in vivo; conditions: Table 7, oral capsule 25 mg/kg, Day 32
Protocol: as §4, §3, §5

Cc1cc(C2=NOC(c3cc(Cl)c(F)c(Cl)c3)(C(F)(F)F)C2)ccc1C(=O)NCc1ccc2c(c1)C(C)(C)OB2O (centres unmarked) [Compound 3, 4-(5-(3,5-Dichloro-4-fluorophenyl)-5-(trifluoromethyl)-4,5-dihydroisoxazol-3-yl)-N-((1-hydroxy-3,3-dimethyl-1,3-dihydrobenzo[c][1,2]oxaborol-5-yl)methyl)-2-methylbenzamide]
mortality at 300 µM [1]: ≥ 80%
Geometric mean group live parasite counts ([2]; Day 1): 0.0
% efficacy ([2]; Day 2): (100) %
Geometric mean group live parasite counts ([2]; Day 2): 0.0
Geometric mean group live parasite counts ([2]; Day 7): 1.2
Geometric mean group live parasite counts ([2]; Day 14): 13.3

Cc1cc(C2=NOC(c3cc(Cl)cc(Cl)c3)(C(F)(F)F)C2)ccc1C(=O)NCc1ccc2c(c1)B(O)OC2(C)C (centres unmarked) [Compound 5, 4-(5-(3,5-Dichlorophenyl)-5-(trifluoromethyl)-4,5-dihydroisoxazol-3-yl)-N-((1-hydroxy-3,3-dimethyl-1,3-dihydrobenzo[c][1,2]oxaborol-6-yl)-methyl)-2-methyl benzamide]
mortality at 300 µM [1]: ≥ 80%
therapeutic efficacy ([2]; 24 hour post-treatment): 100%
therapeutic efficacy ([2]; 48 hour post-treatment): 100%
Residual efficacy ([2]; Day 7): 82.6%
Residual efficacy ([2]; Day 14): 82.7%
tolerability [3]: well tolerated

Cc1cc(C2=NO[C@@](c3cc(Cl)c(F)c(Cl)c3)(C(F)(F)F)C2)ccc1C(=O)NCc1ccc2c(c1)B(O)OC2(C)C [Compound 11, (S)-4-(5-(3,5-Dichloro-4-fluorophenyl)-5-(trifluoromethyl)-4,5-dihydroisoxazol-3-yl)-N-((1-hydroxy-3,3-dimethyl-1,3-dihydrobenzo[c][1,2]oxaborol-6-yl)methyl)-2-methylbenzamide]
mortality at 300 µM [1]: ≥ 80%
efficacy ([2]; Example 11, oral capsule 25 mg/kg, through Day 21): ≥ 99%
Geometric mean group live parasite counts ([2]; Day 1): 0.0
% efficacy ([2]; Day 2): (100) %
Geometric mean group live parasite counts ([2]; Day 2): 0.0
% efficacy ([2]; Day 7): (98.8) %
Geometric mean group live parasite counts ([2]; Day 7): 0.3
% efficacy ([2]; Day 14): (99.1) %
Geometric mean group live parasite counts ([2]; Day 14): 0.3
% efficacy ([2]; Day 21): (99.0) %
Geometric mean group live parasite counts ([2]; Day 21): 0.2
% efficacy ([2]; Day 30): (95.6) %
Geometric mean group live parasite counts ([2]; Day 30): 1.1
Geometric mean group live parasite counts [4]: 2.8
Geometric mean group live parasite counts [5]: 2.5

Cc1cc(C2=NOC(c3cc(Cl)c(Cl)c(Cl)c3)(C(F)(F)F)C2)ccc1C(=O)NCc1ccc2c(c1)B(O)OC21CCCC1 (centres unmarked) [Compound 18, N-((1-Hydroxy-1H-spiro[benzo[c][1,2]oxaborole-3,1′-cyclopentan]-6-yl)methyl)-2-methyl-4-(5-(3,4,5-trichlorophenyl)-5-(trifluoromethyl)-4,5-dihydroisoxazol-3-yl)benzamide]
mortality at 300 µM [1]: ≥ 80%

Cc1cc(C2=NOC(c3cc(Cl)c(Cl)c(Cl)c3)(C(F)(F)F)C2)ccc1C(=O)NCCc1ccc2c(c1)B(O)OC2(C)C (centres unmarked) [Compound 19, N-(2-(1-Hydroxy-3,3-dimethyl-1,3-dihydrobenzo[c][1,2]oxaborol-6-yl)ethyl)-2-methyl-4-(5-(3,4,5-trichlorophenyl)-5-(trifluoromethyl)-4,5-dihydroisoxazol-3-yl)benzamide]
mortality at 300 µM [1]: ≥ 80%

Cc1cc(C2=NOC(c3cc(Cl)c(F)c(Cl)c3)(C(F)(F)F)C2)ccc1C(=O)NCCc1ccc2c(c1)B(O)OC2(C)C (centres unmarked) [Compound 20, 4-(5-(3,5-Dichloro-4-fluorophenyl)-5-(trifluoromethyl)-4,5-dihydroisoxazol-3-yl)-N-(2-(1-hydroxy-3,3-dimethyl-1,3-dihydrobenzo[c][1,2]oxaborol-6-yl)ethyl)-2-methylbenzamide]
mortality at 300 µM [1]: ≥ 80%

Cc1cc(C2=NOC(c3cc(Cl)c(Cl)c(Cl)c3)(C(F)(F)F)C2)ccc1C(=O)NC(C)c1ccc2c(c1)B(O)OC2(C)C (centres unmarked) [Compound 22a, N-(1-(1-Hydroxy-3,3-dimethyl-1,3-dihydrobenzo[c][1,2]oxaborol-6-yl)ethyl)-2-methyl-4-(5-(3,4,5-trichlorophenyl)-5-(trifluoromethyl)-4,5-dihydroisoxazol-3-yl)benzamide]
mortality at 300 µM [1]: ≥ 80%

Cc1cc(C2=NOC(c3cc(Cl)c(Cl)c(Cl)c3)(C(F)(F)F)C2)ccc1C(=O)NCc1cc(F)c2c(c1)B(O)OC2(C)C (centres unmarked) [Compound 24, N-((4-fluoro-1-hydroxy-3,3-dimethyl-1,3-dihydrobenzo[c][1,2]oxaborol-6-yl)methyl)-2-methyl-4-(5-(3,4,5-trichlorophenyl)-5-(trifluoromethyl)-4,5-dihydroisoxazol-3-yl)benzamide]
mortality at 300 µM [1]: ≥ 80%
